Data taken from patent US4822791A, “Pharmaceutical compositions of-2,2-1,1-[bis-2,2'-(3,1-benzoxazin-4-one)9 ethylenes” (priority 1984, dated 1989).
Several values for one entry are separate records, joined by “and”; a condition that tells them apart may be missing. Equal entries are not always repeated. Where two headings read alike, the source gives them in different places. Blank lines part the entries; values can stand above or below the compound they belong to.

Legend:
[1] = tested on: mast cell in abdominal cavity; assay: Release of histamine by antigen DNP-Ascaris, mast cell in abdominal cavity (Test Example 12); format: cell-based, rat; details: Rattus norvegicus, Mast cell; 10^-3 M; read-out: Effect on release of histamine by antigen DNP-Ascaris, Mast cell in abdominal cavity (control 100)
Procedure: (§1) Collection of mast cells in abdominal cavity and thoracic cavity and sensitizing of cells were conducted in similar manners to those in Test Example 10, respectively.
(§2) (1) Preparation of DNP-Ascaris antiserum was conducted in manner similar to that in Test Example 6.
(§3) This is conducted in amanner similar to that in Test Example 10.
(§4) This is conducted in a manner similar to that in Test Example 10.

[2] = tested on: Mast cell in thoracic cavity; assay: Release of histamine by antigen DNP-Ascaris, mast cell in thoracic cavity (Test Example 12); format: cell-based; details: Rattus norvegicus, 10^-3 M, read-out: Effect on release of histamine by antigen DNP-Ascaris, Mast cell in thoracic cavity (control 100)
Procedure: as §1, §2, §3, §4

hyaluronidase [3] = molecular target: T1, hyaluronidase (Bos taurus, UniProt Q2YDK3); assay: Anti-hyaluronidase activity (modified Morgan-Elson method); format: biochemical; details: hyaluronidase 340NF unit/ml; activating agent Compound 48/80 or CaCl2; read-out: IC50
T1 sequence (Q2YDK3 36-553): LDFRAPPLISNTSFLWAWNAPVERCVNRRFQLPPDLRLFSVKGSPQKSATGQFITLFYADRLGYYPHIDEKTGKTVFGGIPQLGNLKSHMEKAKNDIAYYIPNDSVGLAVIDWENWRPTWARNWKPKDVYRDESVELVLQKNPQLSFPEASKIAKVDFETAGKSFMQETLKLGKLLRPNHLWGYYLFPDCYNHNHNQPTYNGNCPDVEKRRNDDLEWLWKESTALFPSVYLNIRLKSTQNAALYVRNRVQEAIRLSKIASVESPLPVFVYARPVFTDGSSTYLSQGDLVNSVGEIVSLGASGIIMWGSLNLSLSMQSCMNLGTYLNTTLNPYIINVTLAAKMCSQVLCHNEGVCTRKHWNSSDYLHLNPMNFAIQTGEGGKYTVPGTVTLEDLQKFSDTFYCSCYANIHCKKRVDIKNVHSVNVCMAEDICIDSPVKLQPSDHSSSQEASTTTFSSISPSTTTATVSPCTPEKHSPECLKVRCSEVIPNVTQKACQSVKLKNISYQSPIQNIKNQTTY
Procedure: A buffer soluticn of hyaluronidase (0.1 ml) was taken in a test tube and 0.2 ml each of the buffer solution of various compounds in various concentrations was added, and the mixture was preincubated at 37° C. for 20 minutes. Then, an activating agent (Compound 48/80 or CaCl2) (0.2 ml) was added to make the total amount 0.5 ml, which was incubated at 37° C. for 20 minutes. Then, potassium hyaluronate buffer solution (0.5 ml) was added, and the mixture was incubated at 37° C. for 40 minutes. After cooling, the mixture was treated with aqueous solution of 0.4N NaOH (0.2 ml) and neutralized to stop the reaction. The resulting product was subjecred to measurement of OD585 by the modified Morgan-Elson Method. […] (The final ccncentration of hyaluronidase was 340NF unit/ml.) [formula]

[4] = tested on: mast cell in abdominal cavity; assay: Histamine release by antigen DNP-Ascaris, mast cell in abdominal cavity (Test Example 10); format: cell-based, rat; details: 10^-3 M; for activity at 1000 µM: Rattus norvegicus, Mast cell, 20 min, read-out: released amount of histamin, Mast cell in abdominal cavity (control shown as 100)
Procedure: (§5) Examination was made cn the activity of inhibition of histamine release from mast cell by antigen-antibody reaction.
(§6) Preparation of DNP-Ascaris antiserum was conducted in a manner similar to that in Test Example 6.
(§7) Heparin-containing PBS was injected into the abdominal cavity of rat which was sacrificed by bleeding, after which the abdomen was well massaged, and then peritoneal exudate was sampled. The same liquid was also injected into the thoracic cavity, and after shaking the breast for several minutes, the thoracic cavity liquid was sampled, which was purified by washing several times by centrifugation. The number of the mast cells contained in this liquid was measured and adjusted to a designated concentration. (Mast cells, 8.0×10^4 cells/ml).
(§8) To the cell suspension (4 ml, 9×10^5 cells/ml), anti-DNP-Ascaris rat serum (PCA titer, 32) (4 ml) was added, and the mixture was incubated in the presence of heparin at 37° C. for 2.5 hours. To the solution, 70 microgramms/ml phosphatidylserin PBS solution (0.5 ml) was added and the mixture was incubated at 37° C. for 12 minutes, after which 140 microgramms/ml antigen DNP-Ascaris PBS solution (0.5 ml) was added and the mixture was incubated further for 20 minutes.
After completion of the reaction, the reaction liquid was centrifuged (500 G, 10 min.) to obtain supernatant solution, and histamin in the supernatant solution was subjected to fluorometry by orthophthalal aldehyde method. The released amount of histamin in the control was shown as 100.

[5] = tested on: passive cutaneous anaphylaxis (PCA); assay: Anti-passive cutaneous anaphylaxis activity (PCA) in rats (Test Example 9); format: in vivo; details: Rattus norvegicus, po, 10 animals
Procedure: (§9) Wistar strain rats were sensitized with ovalbumin using aluminium hydroxide gel and Bordetella Pertussis vaccine as adjuvants. Dilutions of antiserum (16-fold and 32-fold) obtained by collecting blood samples 14 days later were administered subcutaneously in the dorsal skin of the rats of the same strain at the rate of 0.1 ml per spot, and the rats were grown for 48 hours. One hour after peroral administration of the sample solution, a mixture of antigen ovalbumin and Evans-blue dye was administered to the tail venous of the animal according to the ordinary procedure. Thirty minutes later, the animals were sacrificed by exsanguination, and the areas of blue spots (long diameter×short diameter) eliciting on the portion of the antiserum injection at the dorsal skin were measured to obtain the rate of inhibition based on the average value shown by the control animals.
This test was conducted in a manner similar to that in Test Example 2, except that the dilutions of antiserum were 12- and 24-folds.

[6] = Acute toxicity LD50 in ICR mice (Test Example 11); details: mouse, in vivo, one week, Provit method
Procedure: As test animals, ICR-strain mice (male) were used. According to the conventional procedure, suspension or solution of test sample was administered to the animals. From the number of the died animals until one week after the administration, LD50 values were obtained by Provit method.

[7] = tested on: Mast cell in thoracic cavity; assay: Histamine release by antigen DNP-Ascaris, mast cell in thoracic cavity (Test Example 10); format: cell-based; details: Rattus norvegicus, 20 min, 10^-3 M, read-out: released amount of histamin, Mast cell in thoracic cavity (control shown as 100)
Procedure: as §5, §6, §7
as §8, with “minutes. […]” for “minutes.”

[8] = tested on: Mast cell in thoracic cavity; assay: Release of histamine by dextran (T-500), mast cell in thoracic cavity (Test Example 12); format: cell-based, rat; details: Rattus norvegicus, Mast cell, 0.25 h; 10^-3 M; read-out: Effect on release of histamine by dextran (T-500), Mast cell in thoracic cavity (control 100)
Procedure: as §1
(§10) The sample solution was treated with 105 microgramms/ml phosphatidylserin PBS solution (0.5 ml) and incubated at 37° C. for 30 minutes, followed by addition of 25 mg/ml dextran (T-500) PBS solution (0.5 ml) and further incubation for 15 minutes.
as §4

[9] = tested on: anaphylaxis reaction to inhalated antigen; assay: Antigen inhalation test on passive sensitized guinea pig (experimental asthma model); format: in vivo; details: for Average time for falling Mean ± S.E. / Required time (sec.) for falling and Number of death (#), single animals: N 5; for Required time (sec.) for falling and Number of death (#), single animals: observed 10 minutes, # shows death
Procedure: The test compound and Tranilast were respectively suspended at the time of use in 5% gum arabic solution containing 0.1% Tween 80 at the rate of 40 mg/ml, and were perorally administered at the rate of 0.5 ml per 100 g body weight of the animal.
DSCG was dissolved at the time of use in physiological saline solultion for injection at the rate of 5.0 mg/ml, and was intravenously injected at the rate of 0.1 ml per 100 g body weight of the animal.
Anti-ovalbumin rabbit serum diluted with physiological saline solution for injection so as tc contain anti-ovalbumin rabbit antibody at the rate of 0.187 mg N/ml was intravenously administered to guinea pig at the rate of 0.1 ml per 100 g of body weight and it was passively sensitized.
Twenty-four hours later, the suspension of the compound prepared in (1) above was perorally or intravenously administered to the animal. The animal was put in the inhalation chamber one hour after the administration in case of the peroral administration and five minutes after the administration in case of the intravenous administration, and 2% physiological saline solution of antigen ovalbumin was inhaled by spraying. Over 10 minutes' period from the time immediately after the forced inhalation, the time until its fall attributed to anaphylaxis reaction was recorded, and the numbers of alive and dead animals after lapse of 10 minutes were also counted.

[10] = tested on: passive cutaneous anaphylaxis (PCA); assay: Anti-passive cutaneous anaphylaxis (PCA) activity in rats (Test Example 2); format: in vivo, Wistar strain rats; details: for inhibition in vivo at 100 mg/kg / inhibition in vivo at 200 mg/kg: Rattus norvegicus, N 10; for inhibition in vivo at 100 mg/kg: 100 mg/kg PO; for inhibition in vivo at 200 mg/kg: 200 mg/kg PO
Procedure: as §9

[11] = tested on: mast cell in abdominal cavity; assay: Release of histamine by dextran (T-500), mast cell in abdominal cavity (Test Example 12); format: cell-based, rat; details: Rattus norvegicus, Mast cell, 0.25 h, read-out: Effect on release of histamine by dextran (T-500), Mast cell in abdominal cavity (control 100)
Procedure: as §1, §10, §4

hyaluronidase [12] = details: known from the literature; cited from earlier work
[13] = tested on: mast cell in abdominal cavity; assay: Inhibition of histamine release from mast cell in abdominal cavity in rat (Test Example 6); format: cell-based; details: Rattus norvegicus, Mast cell, 20 min, DNP-Ascaris 20 microgramms/ml, read-out: Amount of histamine released from peritoneal mast cell (Control = 100)
Procedure: Examination was made on the activity of inhibition of histamine release from mast cell by antigen-antibody reaction.
Swine ascaris extract solution was dinitrophenylated according to Aisen's method, dialysed, and lyophilized. The product was administered as antigen together with Bordetella Pertussis vaccine subcutaneously into the foot pad of rat. Eight days later, blood was taken to obtain antiserum. The PCA titer for this antiserum in rat was 32 to 64.
Heparin-containing PBS was injected intraperitoneally to rat which was sacrificed by exsanguination, after which the abdomen was well massaged to collect the injected PBS, which was purified by washing several times by centrifugation. The number of the mast cells contained in the solution was determined and adjusted to the designed concentration. As to method of sensitizing the cell, the above cell suspension (6 ml, 2×10^6 cells/ml) was treated with anti-DNP-Ascaris rat serum (PCA titer 32) (6 ml) and the mixture was incubated in the presence of hepain at 37° C. for 2 hours.
To the sensitized mast cell suspension the solution of the drug to be tested was added, and the mixture was preliminarily incubated at 37° C. for 12 minutes. After addition of the solution of antigen DNP-Ascaris (final concentration, 20 microgramms/ml), the mixture was further incubated for 20 minutes. After completion of the reaction, the solution was centrifuged (500 G, 10 min.) under a low temperature to obtain a supernatant solution. Histamine contained in the supernatant solution was subjected to fluorometry by crthophthalaldehyde method.

SRS-A = assay: Anti-SRS-A activity, contraction of guinea pig ileum by crude SRS-A solution; design: key to Anti-SRS-A activity (rate of inhibition against the contraction amount): % inhibition of SRS-A-induced ileum contraction
Procedure: A piece of lungs of guinea pig sensitized with ovalbumin was incubated with antigen ovalbumin at 37° C. for 20 minutes to obtain a supernatant solution, which was used as a crude SRS-A solution.
A piece of ileum of normal guinea pig was suspended in Magnus tube filled with Tyrode's solution and incubated with the solution of drug to be examined for a certain duration, and the contraction of the piece of ileum induced by adding the above crude SRS-A solution was determined on the basis of the contraction rate attributed to hystamine dihydrochloride 10^-6 M. The rate of inhibition against the contraction amount was taken as anti-SRS-A activity.

[14] = read-out: Inhibition, Anti-serum Dilution: × 12
[15] = read-out: Inhibition, Anti-serum Dilution: × 24
[16] = read-out: Average Inhibition Rate (%) Antiserum Dilution: × 16
[17] = read-out: Average Inhibition Rate (%) Antiserum Dilution: × 32

IC50 (hyaluronidase [3]): 15 µM
Structure (SMILES): COc1ccc(C=C(C(=O)Nc2cc(Cl)ccc2C(=O)O)C(=O)Nc2cc(Cl)ccc2C(=O)O)cc1OC [Compound 21]
activity at 1000 µM [1]: 48.3%
activity at 1000 µM [2]: 73%

Structure (SMILES): COC(=O)c1ccccc1NC(=O)C(=Cc1ccccc1)C(=O)Nc1ccccc1C(=O)OC [Compound 51]
inhibition of release of histamine from mast cells in abdominal and thoracic cavity (in words) [4]: action of inhibiting release of histamine
activity at 1000 µM [4]: 50.4%
inhibition in vivo at 10 mg/kg [5, 14]: 28.1%
inhibition in vivo at 10 mg/kg [5, 15]: 30.3%
inhibition in vivo at 50 mg/kg [5, 14]: 34.2%
inhibition in vivo at 50 mg/kg [5, 15]: 37.5%
LD50 at 168 h ([6]; po, peroral, read-out: LD50 Value (mg/kg of body weight) Peroral administration): ≥ 8000 mg/kg
LD50 at 168 h ([6]; intravenous, read-out: LD50 Value (mg/kg of body weight) Intravenous administration): 238 mg/kg
activity at 1000 µM [7]: 75.1%

Structure (SMILES): O=C(O)c1cc(=O)c2c(OCC(O)COc3cccc4oc(C(=O)O)cc(=O)c34)cccc2o1 [DSCG, disodium cromoglicate, reference compound]
activity at 1000 µM [4]: 76.8%
activity at 1000 µM [8]: 42.2%
Extended rate (%) ([9]; 5 mg/kg iv): 23.9%
Average time for falling Mean ± S.E. ([9]; 5 mg/kg iv): 192.5 ± 20.3 s
Required time (sec.) for falling and Number of death (#), single animals ([9]; 5 mg/kg iv): 142 s and 188 s and 199 s and 241 s and > 600 s
inhibition in vivo at 100 mg/kg [5, 14]: 0%
inhibition in vivo at 100 mg/kg [5, 15]: 0%
inhibition in vivo at 100 mg/kg [10, 16]: 0.1%
inhibition in vivo at 100 mg/kg [10, 17]: 0.3%
anti-PCA activity by peroral administration (in words) ([10]; peroral): no activity
activity at 1000 µM [1]: 76.8%
activity at 1000 µM ([11]; 10^-3 M): 60%
activity at 100 µM ([11]; 10^-4 M): 52.9%
activity at 1000 µM [2]: 105%
effect on hyaluronidase activity (in words) (hyaluronidase [12]): inhibit hyaluronidase activity
activity at 1000 µM [7]: 105%

Structure (SMILES): COc1ccc(/C=C/C(=O)Nc2ccccc2C(=O)O)cc1OC [Tranilast, reference compound]
Extended rate (%) ([9]; 200 mg/kg po): -3.0%
preventive effect on anaphylaxis reaction (in words) ([9]; 200 mg/kg po): no activity
Average time for falling Mean ± S.E. ([9]; 200 mg/kg po): 150.8 ± 14.8 s
Required time (sec.) for falling and Number of death (#), single animals ([9]; 200 mg/kg po): 116 s and 126 s and 141 s and 181 s and 190 s
inhibition in vivo at 200 mg/kg [5, 14]: 2.1%
inhibition in vivo at 200 mg/kg [5, 15]: 10.7%
inhibition in vivo at 200 mg/kg [10, 16]: 1.8%
inhibition in vivo at 200 mg/kg [10, 17]: 15.8%
activity at 1000 µM ([13]; 10^-3 M): 29%
activity at 100 µM ([13]; 10^-4 M): 67%
activity at 10 µM ([13]; 10^-5 M): 95%
activity at 1 µM ([13]; 10^-6 M): 95%
effect on hyaluronidase activity (in words) (hyaluronidase [12]): inhibit hyaluronidase activity
Anti-SRS-A activity (rate of inhibition against the contraction amount) (SRS-A; 10^-3 M): 0
Anti-SRS-A activity (rate of inhibition against the contraction amount) (SRS-A; 10^-4 M): 0
Anti-SRS-A activity (rate of inhibition against the contraction amount) (SRS-A; 10^-5 M): 0
Anti-SRS-A activity (rate of inhibition against the contraction amount) (SRS-A; 10^-6 M): 0
anti-SRS-A activity (in words) (SRS-A; compound 11 at a concentration of 10^-3 M): no activity
